Measurements published in US12291494B2, “Methods of treating fibrosis” (Nogra Pharma Limited, priority 2012, dated 2025).

How the values were obtained:
IL-13 = assay: DSS chronic colitis (Ex. 7): Western blot, IL-13; assay type: in vivo, mice; details: percentage of optical density vs control group, normalized with GAPDH; DSS 189.5%±28.71%
Method: (§1) 0.5 cm of frozen colonic samples were cut and mechanically homogenized in RIPA Buffer containing 50 mMTrisHCl pH 7.6, 150 mMNaCl, 1.5 mM MgCl2, 5 mM EDTA, 1% Triton-X and 10% Glycerol, supplemented with 100 mM Sodium Fluoride (NaF), 2 mM Sodium Orthovanadate (Na3VO4), 10 mM Sodium Pyrophosphate (NaPPi), 1 mMphenylmethanesulphone (PMSF) and a classical protease-inhibitor cocktail containing 10 μg/mL Leupeptin and Aprotinin.
(§2) 30 μg of protein for each sample were separated by PAGE and electroblotted. 100% pure Nitrocellulose membranes were incubated (according with a specific protocol for each antibody) with primary antibodies directed against TGF-β1, CTGF, α-SMA, Collagen-I and GAPDH (purchased from Abcam, Cambridge, UK; 1:1000 for 2 h at RT), and IL-13 (purchased from Antibodies online; 1:1000 for 2 h at RT) diluted in 5% non fat-milk in 0.1% TBS-t. […] Optical density of target bands was determined using a computer-assisted densitometer and the ImageJ public domain software (W. S., Rasband, ImageJ, U. S. National Institutes of Health, Bethesda, MD; http://rsb.info.nih.gov/ij/, 1997-2011). Tissue levels were expressed as units of Optical Density (OD) per quantity of total proteins, normalizing with internal control GAPDH and the results were expressed as percentage of control groups.

C57BL/6 mice = assay: DSS chronic colitis (Ex. 7): microscopic colonic lesions (H&E, Masson's trichrome); assay type: in vivo
Method: The macroscopic colonic lesions including dilation, thickness and stenosis were scored by an independent observer, unaware of the mice treatment. Tissue specimens from the colon were dissected and immediately frozen or fixed in fresh 4% formaldehyde (FA)/PBS solution for 3 h at room temperature followed by the standard procedure for paraffin embedding. Paraffin embedded tissues transversally sectioned at 3 μm were subject to Hematoxylin/Eosin staining, to assess the inflammatory degree, and Masson trichrome to better assess connective tissue and fibrosis. […] The degree of intestinal inflammation was assessed according to the density and extent of chronic inflammatory infiltrate, loss of goblet cells, and bowel wall thickening. […]
Intestinal fibrosis was scored as absent, mild, or severe, depending on the density and extent of trichrome-positive connective tissue staining and disruption of tissue architecture.

TGF-β1 = assay: DSS intestinal fibrosis study: Western blot of colon, TGF-β1; assay type: in vivo, mice; details: whole colon, OD normalized with GAPDH, expressed as percentage of control groups; DSS 153.6 ± 26.25
Method: as §1, with “For the Western blot analysis, 0.5” for “0.5”, “were” for “were cut and mechanically”, “mM Tris HCl” for “mMTrisHCl”, “mM NaCl,” for “mMNaCl,”, “mM phenylmethanesulphone” for “mMphenylmethanesulphone”
For each sample, 30 μg of protein was separated by PAGE and electroblotted. Nitrocellulose membranes (100% pure) were incubated (according with a specific protocol for each antibody) with primary antibodies directed against CTGF, Collagen-I and GAPDH (purchased from Abcam, Cambridge, UK; 1:1000 for 2 h at RT), diluted in 5% non-fat milk in 0.1% TBS-t. […] Optical density of target bands was determined using a computer-assisted densitometer and the ImageJ public domain software (W. S., Rasband, ImageJ, U. S. National Institutes of Health, Bethesda, MD; http://rsb.info.nih.gov/ij/, 1997-2011). Tissue levels were expressed as units of Optical Density (OD) per quantity of total proteins, normalized with internal control GAPDH and the results were expressed as percentage of control groups.

Collagen I-III = assay: DSS chronic colitis (Ex. 7): Western blot, Collagen I-III; assay type: in vivo, mice; details: percentage of the mean of control group, normalized with GAPDH; DSS 284.4%±63.8%
Method: as §1, §2

[1] = tested on: main markers of fibrosis (Collagen I-III, CTGF, SMAD 2/3, PDGF, α-SMA, and TGF-β1); assay: DSS intestinal fibrosis study: immunohistochemical analysis of colon; assay type: in vivo, mice
Method: For the immunohistochemical analysis, tissue specimens from the colon were fixed in fresh 4% paraformaldehyde (PFA)/PBS solution for 3 h at room temperature, dehydrated in a graded ethanol series, and embedded in low-temperature-fusion paraffin. 3-μm-thick sections were incubated in methanol for 40 min and then in 3% hydrogen peroxide for 5 min. Samples were incubated overnight with specific antibodies against collagen types I-III (Abcam), connective tissue growth factor (CTGF) (Abcam), Platelet Derived Growth factor (PDGF), SMAD2/3, the main markers of fibrosis. The samples were washed for 5 min with PBS and incubated with streptavidin-biotin-peroxidase conjugated secondary antibody (Dako LSAB Corporation, cod K0675, Dako-Cytomation, Milano). After a wash in PBS for 10 min the sections were subjected to incubation with 3,3-diaminobenzidine-tetrahydrochloride for 1-3 min.
The specificity of immune reaction was performed omitting the primary antibodies Finally the samples were stained with hematoxylin of Mayer and observed under the Olympus BX51 Light Microscope (Olympus, Optical Co. Ltd., Tokyo, Japan).

## COC(Cc1ccc(N)cc1)C(=O)O (racemic) [Compound 34, (±)-2-methoxy-3-(4′-aminophenyl) propionic acid]
IL-13
  IL-13 expression level (Western blot): 88.88%±14.01%
C57BL/6 mice; FIG. 12 legend, result in words
  intestinal wall architecture (H&E, Masson's trichrome): restoring of normal intestinal wall architecture
C57BL/6 mice; daily oral GED, DSS 6.45±0.82, FIG. 12
  Total microscopic score (maximum 10): 3.36±0.55
TGF-β1
  TGF-β1 (Western blot): 130.5 ± 28.02
Collagen I-III
  Collagen I-III expression level (Western blot): 90.75%±19.9%
[1]; colon of DSS mice vs colitic mice receiving vehicle, FIG. 9A-9E
  main markers of fibrosis (Collagen I-III, CTGF, SMAD 2/3, PDGF, α-SMA, TGF-β1) by IHC: a reduction of the main markers of fibrosis
[1]; colon of DSS mice, FIG. 9A
  collagen staining (immunohistochemical analysis): decrease in the collagen staining
